Measurements reported in patent US9255295B2, “Method for evaluating the sensitizing potential of a test compound” (IMMUNOSEARCH, priority 2010, dated 2016).

Columns and labels:
EPISKIN model = experiment: Sensitizing power: sensitizing potential retested at successive dilutions in the EPISKIN model
Description: “Sensitizing power” means the ability of a given compound to induce a sensitization reaction according to the concentration of said compound. Sensitizing power is dependent on the quantity of substance necessary to induce sensitization. Thus, the lower the sensitizing quantity necessary to induce a sensitizing response, the stronger the sensitizer is, and vice versa, the higher the sensitizing quantity necessary to induce a sensitizing response, the weaker the sensitizer is.
Thus, steps 1) and 2) will be done for each of the dilutions.

[1] = test system: genes specific for sensitization (BRAK, CTSS, DAPK2, FABP4, HSP27, IL18, HSP90, IL1R2, TPSAB1, CXCR1, DEFB1, DHFR, EHF, IVL, KRT4, MELANA, NGAL, PDZK1IP1, PI3 …); experiment: Expression of the other (non-ARE) sensitization-specific genes in EPISKIN reconstructed skin (quantitative RT-PCR); type: cell-based, human;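 for CTSS NUMBER OF GENES grade: grade scored against expression in the control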;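 for CXCR1 NUMBER OF GENES grade: grade scored against expression in the control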;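 for DAPK2 NUMBER OF GENES grade: grade scored against expression in the control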

What does the source list for `O=CC=O` [Glyoxal]?
sensitizing potential (conclusion) (EPISKIN model; 0.1%): Sensitizing; sensitizing potential (conclusion) (EPISKIN model; 1%): Sensitizing; sensitizing potential (conclusion) (EPISKIN model; 10%): Sensitizing; sensitizing potential (conclusion) (EPISKIN model; 50%): Sensitizing; sensitizing power (class) (EPISKIN model; from successive dilutions): MODERATE; BRAK NUMBER OF GENES grade ([1]; 0.1%): 0 (if this expression is lower, the grade is 0); CTSS NUMBER OF GENES grade ([1]; 0.1%): 0 (if this expression is lower, the grade is 0); CXCR1 NUMBER OF GENES grade ([1]; 0.1%): 0 (if this expression is lower, the grade is 0); DAPK2 NUMBER OF GENES grade ([1]; 0.1%): 0 (if this expression is lower, the grade is 0); DEFB1 NUMBER OF GENES grade ([1]; 0.1%): 0 (if this expression is lower, the grade is 0); DHFR NUMBER OF GENES grade ([1]; 0.1%): 0 (if this expression is lower, the grade is 0); EHF NUMBER OF GENES grade ([1]; 0.1%): 0 (if this expression is lower, the grade is 0); FABP4 NUMBER OF GENES grade ([1]; 0.1%): 0 (if this expression is lower, the grade is 0); HSP27 NUMBER OF GENES grade ([1]; 0.1%): 0 (if this expression is lower, the grade is 0); HSP90 NUMBER OF GENES grade ([1]; 0.1%): 0 (if this expression is lower, the grade is 0); IL18 NUMBER OF GENES grade ([1]; 0.1%): 0 (if this expression is lower, the grade is 0); IVL NUMBER OF GENES grade ([1]; 0.1%): 0 (if this expression is lower, the grade is 0); KRT4 NUMBER OF GENES grade ([1]; 0.1%): 0 (if this expression is lower, the grade is 0); MELANA NUMBER OF GENES grade ([1]; 0.1%): 0 (if this expression is lower, the grade is 0); NGAL NUMBER OF GENES grade ([1]; 0.1%): 0 (if this expression is lower, the grade is 0); P13 NUMBER OF GENES grade ([1]; 0.1%): 0 (if this expression is lower, the grade is 0); PDZK1iP1 NUMBER OF GENES grade ([1]; 0.1%): 0 (if this expression is lower, the grade is 0); SENS >1.3 (number of genes) ([1]; 0.1%): 0; SERPINB3 NUMBER OF GENES grade ([1]; 0.1%): 0 (if this expression is lower, the grade is 0); TOTAL SENS (number of genes) ([1]; 0.1%): 0; BRAK expression ([1]; 0.1%, compared to the control): 0.6; CTSS expression ([1]; 0.1%, compared to the control): 1.0; CXCR1 expression ([1]; 0.1%, compared to the control): 1.1; DAPK2 expression ([1]; 0.1%, compared to the control): 0.9; DEFB1 expression ([1]; 0.1%, compared to the control): 0.8; DHFR expression ([1]; 0.1%, compared to the control): 0.9; EHF expression ([1]; 0.1%, compared to the control): 0.8; FABP4 expression ([1]; 0.1%, compared to the control): 0.4; HSP27 expression ([1]; 0.1%, compared to the control): 0.7; HSP90 expression ([1]; 0.1%, compared to the control): 1.0; IL18 expression ([1]; 0.1%, compared to the control): 0.8; IVL expression ([1]; 0.1%, compared to the control): 0.7; KRT4 expression ([1]; 0.1%, compared to the control): 0.9; MELANA expression ([1]; 0.1%, compared to the control): 0.5; NGAL expression ([1]; 0.1%, compared to the control): 0.7; P13 expression ([1]; 0.1%, compared to the control): 0.8; PDZK1iP1 expression ([1]; 0.1%, compared to the control): 0.9; SERPINB3 expression ([1]; 0.1%, compared to the control): 1.0; BRAK NUMBER OF GENES grade ([1]; 1%): 0 (if this expression is lower, the grade is 0); CTSS expression compared to control ([1]; 1%): 1.3; CTSS grade (NUMBER OF GENES) ([1]; 1%): 1 (If the expression is greater than 1.3 compared to the control, a grade of 11s given); CXCR1 expression compared to control ([1]; 1%): 1.6; CXCR1 grade (NUMBER OF GENES) ([1]; 1%): 1 (If the expression is greater than 1.3 compared to the control, a grade of 11s given); DAPK2 expression compared to control ([1]; 1%): 0.9; DAPK2 grade (NUMBER OF GENES) ([1]; 1%): 0 (if this expression is lower, the grade is 0); DEFB1 expression compared to control ([1]; 1%): 1.4; DEFB1 grade (NUMBER OF GENES) ([1]; 1%): 1 (If the expression is greater than 1.3 compared to the control, a grade of 11s given); DHFR NUMBER OF GENES grade ([1]; 1%): 0 (if this expression is lower, the grade is 0); EHF expression compared to control ([1]; 1%): 0.9; EHF grade (NUMBER OF GENES) ([1]; 1%): 0 (if this expression is lower, the grade is 0); FABP4 expression compared to control ([1]; 1%): 0.8; FABP4 grade (NUMBER OF GENES) ([1]; 1%): 0 (if this expression is lower, the grade is 0); HSP27 expression compared to control ([1]; 1%): 0.8; HSP27 grade (NUMBER OF GENES) ([1]; 1%): 0 (if this expression is lower, the grade is 0); HSP90 NUMBER OF GENES grade ([1]; 1%): 0 (if this expression is lower, the grade is 0); IL18 NUMBER OF GENES grade ([1]; 1%): 0 (if this expression is lower, the grade is 0); IVL expression compared to control ([1]; 1%): 1.7; IVL grade (NUMBER OF GENES) ([1]; 1%): 1 (If the expression is greater than 1.3 compared to the control, a grade of 11s given); KRT4 NUMBER OF GENES grade ([1]; 1%): 0 (if this expression is lower, the grade is 0); MELANA NUMBER OF GENES grade ([1]; 1%): 0 (if this expression is lower, the grade is 0); NGAL expression compared to control ([1]; 1%): 0.6; NGAL grade (NUMBER OF GENES) ([1]; 1%): 0 (if this expression is lower, the grade is 0); P13 expression compared to control ([1]; 1%): 1.4; P13 grade (NUMBER OF GENES) ([1]; 1%): 1 (If the expression is greater than 1.3 compared to the control, a grade of 11s given); PDZK1iP1 NUMBER OF GENES grade ([1]; 1%): 0 (if this expression is lower, the grade is 0); SENS >1.3 (number of genes) ([1]; 1%): 6; SERPINB3 NUMBER OF GENES grade ([1]; 1%): 0 (if this expression is lower, the grade is 0); TOTAL SENS (number of genes) ([1]; 1%): 6; BRAK expression ([1]; 1%, compared to the control): 0.5; DHFR expression ([1]; 1%, compared to the control): 0.9; HSP90 expression ([1]; 1%, compared to the control): 1.1; IL18 expression ([1]; 1%, compared to the control): 1.0; KRT4 expression ([1]; 1%, compared to the control): 0.6
